Assays:
SERT = test system: SERT; parameters: method as in ref 153 (a number printed in a supplementary file, which may have a reference list of its own: not looked up in the article's list); settings: cited from earlier work
NET = test system: NET; parameters: method as in ref 153 (a number printed in a supplementary file, which may have a reference list of its own: not looked up in the article's list); settings: cited from earlier work
DAT = test system: DAT; parameters: method as in ref 153 (a number printed in a supplementary file, which may have a reference list of its own: not looked up in the article's list); settings: cited from earlier work
A2780 = test: Antiproliferative MTT assay; format: cell-based, human; settings: 30 μM pure natural product, 72 h
Description: (§1) For the determination of the antiproliferative properties of the prepared extract and selected alkaloids (isopteropodine, mitraphylline, and uncarine D), an MTT assay was applied on our […] cell panel (see Table S4). […] All were maintained in a minimal essential medium completed with 10% fetal bovine serum, 1% non-essential amino acids, and 1% penicillin–streptomycin at 37 °C in a humidified atmosphere containing 5% CO2. All cell lines were purchased from the European Collection of Cell Cultures (Salisbury, UK), except for SiHa and C33A, which were from the American Tissue Culture Collection, LGC Standards GmbH (Wesel, Germany). Cell culture media and supplements were obtained from Lonza Group Ltd. (Basel, Switzerland). Cells were seeded into 96-well plates (C33A 10,000/well, all others 5000/well); after overnight incubation, the test substances were added and incubated for another 72 h under cell-culturing conditions. Uncaria tomentosa extract and the alkaloids were tested in the 1–90 μg/mL and 1–30 μM ranges, respectively. Finally, 20 μL of 5 mg/mL MTT solution was added to each well and incubated for 4 h; the medium was discarded, and the precipitated formazan crystals were dissolved in DMSO for 60 min with shaking. The absorbance was determined using a microplate reader (SPECTROstar Nano, BMG Labtech GmbH). Two independent experiments were performed with five parallels for each condition. Cisplatin, a clinically used anticancer agent (Ebewe GmbH, Unterach, Austria), was included as a reference compound. Calculations were conducted using the GraphPad Prism 10.0 software (GraphPad Software Inc., San Diego, CA, USA).
(§2) Table S4 – Antiproliferative properties of Uncaria tomentosa extract, three natural products (isopteropodine, mitraphylline, and uncarine D) and the
(§3) reference agent cisplatin.
(§4) Cell line Uncaria tomentosa isopteropodine mitraphylline uncarine D [95% confidence
(§5) 1: The highest applied concentration was 90 μg/mL and 30 μM for the extract and the pure natural products, respectively.
(§6) 2: Inhibitions less than 20% compared to the untreated control were regarded as negligible and were not given numerically.

C33A = test: Antiproliferative MTT assay; format: cell-based, human; settings: 72 h
Description: as §1, §2, §3, §4, §5, §6

HEK293-Mock-B = test: Antiproliferative MTT assay; format: cell-based, human; settings: 72 h
Description: as §1, §2, §3, §4, §5, §6

HEK293-Mock = test: Antiproliferative MTT assay; format: cell-based, human; settings: 72 h
Description: as §1, §2, §3, §4, §5, §6

HeLa = test: Antiproliferative MTT assay; format: cell-based, human; settings: 30 μM pure natural product, 72 h
Description: as §1, §2, §3, §4, §5, §6

MCF7 = test: Antiproliferative MTT assay; format: cell-based, human; settings: 30 μM pure natural product, 72 h
Description: as §1, §2, §3, §4, §5, §6

MDA-MB-231 = test: Antiproliferative MTT assay; format: cell-based, human; settings: 30 μM pure natural product, 72 h
Description: as §1, §2, §3, §4, §5, §6

SiHa = test: Antiproliferative MTT assay; format: cell-based, human; settings: 72 h
Description: as §1, §2, §3, §4, §5, §6

T47D = test: Antiproliferative MTT assay; format: cell-based, human; settings: 30 μM pure natural product, 72 h
Description: as §1, §2, §3, §4, §5, §6

NIH/3T3 = test: Antiproliferative MTT assay; format: cell-based, murine; settings: 72 h
Description: as §1, §2, §3, §4, §5, §6

[1] = test system: pregnane X receptor (PXR); settings: cited from earlier work
HEK293-OAT1 = format: cell-based, human
Description: as §1, §2, §3, §4, §5, §6

HEK293-OATP1B3 = format: cell-based, human
Description: as §1, §2, §3, §4, §5, §6

HEK293-OATP2B1 = format: cell-based, human
Description: as §1, §2, §3, §4, §5, §6

HEK293-OCT1 = format: cell-based, human
Description: as §1, §2, §3, §4, §5, §6

HEK293-OCT2 = format: cell-based, human
Description: as §1, §2, §3, §4, §5, §6

rNTCP = test system: rNTCP; parameters: method as in ref 157 (a number printed in a supplementary file, which may have a reference list of its own: not looked up in the article's list); settings: transcription and expression; cited from earlier work
rMDR1a = test system: rMDR1a; parameters: method as in ref 157 (a number printed in a supplementary file, which may have a reference list of its own: not looked up in the article's list); settings: transcription and expression; cited from earlier work
rMRP2 = test system: rMRP2; parameters: method as in ref 157 (a number printed in a supplementary file, which may have a reference list of its own: not looked up in the article's list); settings: transcription and expression; cited from earlier work
rMRP4 = test system: rMRP4; parameters: method as in ref 157 (a number printed in a supplementary file, which may have a reference list of its own: not looked up in the article's list); settings: transcription and expression; cited from earlier work
rMRP1 = test system: rMRP1; parameters: method as in ref 156 (a number printed in a supplementary file, which may have a reference list of its own: not looked up in the article's list); settings: transcription and expression; cited from earlier work
OATP1B1 = test system: OATP1B1; parameters: method as in ref 75 (a number printed in a supplementary file, which may have a reference list of its own: not looked up in the article's list); settings: cited from earlier work; for inhibition: OATP1B1/3
OATP1B3 = test system: OATP1B3; parameters: method as in ref 75 (a number printed in a supplementary file, which may have a reference list of its own: not looked up in the article's list); settings: cited from earlier work; for inhibition: OATP1B1/3
mouse MRP1 = test system: mouse MRP1; parameters: method as in ref 154 (a number printed in a supplementary file, which may have a reference list of its own: not looked up in the article's list); settings: cited from earlier work
Rat BSEP = test system: Rat BSEP; parameters: method as in ref 154 (a number printed in a supplementary file, which may have a reference list of its own: not looked up in the article's list); settings: cited from earlier work
mBCRP = test system: mBCRP; parameters: method as in ref 154 (a number printed in a supplementary file, which may have a reference list of its own: not looked up in the article's list); settings: cited from earlier work
ABCG5/8 = test system: ABCG5/8; parameters: method as in ref 155 (a number printed in a supplementary file, which may have a reference list of its own: not looked up in the article's list); settings: cited from earlier work
MDR1 = settings: cited from earlier work
[2] = read-out: cisplatin IC50 [95% confidence interval]

CC1(C)CCC2(C(=O)O)CCC3(C)C(=CCC4C5(C)CCC(O)C(C)(CO)C5CCC43C)C2C1 (stereo not drawn) [alpha-Hederagenin]
IC50 (SERT): 0.00134 ± 4e-05 µM
IC50 (NET): 0.00015 ± 2e-05 µM
IC50 (DAT): 0.00109 ± 0.00012 µM

COC(=O)C1=CO[C@@H](C)[C@@H]2CN3CC[C@@]4(C(=O)Nc5ccccc54)[C@H]3C[C@H]12 [uncarine D]
Cell growth inhibition at the highest concentration (% ± SEM) (A2780): < 20%
Cell growth inhibition at the highest concentration (% ± SEM) (C33A; 30 μM pure natural product): < 20%
Cell growth inhibition at the highest concentration (% ± SEM) (HEK293-Mock-B; 30 μM pure natural product): < 20%
Cell growth inhibition at the highest concentration (% ± SEM) (HEK293-Mock; 30 μM pure natural product): < 20%
Cell growth inhibition at the highest concentration (% ± SEM) (HeLa): < 20%
Cell growth inhibition at the highest concentration (% ± SEM) (MCF7): < 20%
Cell growth inhibition at the highest concentration (% ± SEM) (MDA-MB-231): < 20%
Cell growth inhibition at the highest concentration (% ± SEM) (SiHa; 30 μM pure natural product): < 20%
Cell growth inhibition at the highest concentration (% ± SEM) (T47D): < 20%
Cell growth inhibition at the highest concentration (% ± SEM) (NIH/3T3; 30 μM pure natural product): < 20%

C=C[C@H]1CN2CC[C@]3(C(=O)Nc4ccccc43)[C@@H]2C[C@@H]1/C(=C\OC)C(=O)OC [corynoxeine]
PXR activation [1]: PXR activators

N.N.[Cl][Pt][Cl] [cisplatin, reference compound]
IC50 (HEK293-OAT1): 5.55 µM
IC50 (HEK293-OATP1B3): 11.2 µM
IC50 (HEK293-OATP2B1): 9.7 µM
IC50 (HEK293-OCT1): 9.14 µM
IC50 (HEK293-OCT2): 5.51 µM
IC50 (C33A; [2]): 5.85 µM
IC50 (HEK293-Mock-B; [2]): 13.3 µM
IC50 (HEK293-Mock; [2]): 19.5 µM
IC50 (SiHa; [2]): 4.29 µM
IC50 (NIH/3T3; [2]): 5.5 µM

CC1(C)C2CCC1(C)C(O)C2 (stereo not shown) [Borneol]
Type of interaction (rNTCP): inhibited the transcription
Type of interaction (rMDR1a): inhibited the transcription
Type of interaction (rMRP2): inhibited the transcription
Type of interaction (rMRP4): inhibited the transcription
Type of interaction (rMRP1): inhibited the transcription

CC(C)C1=CC2=CC[C@@H]3[C@](C)(CCC[C@@]3(C)C(=O)O)[C@H]2CC1 [Abietic acid]
Ki (OATP1B1; first value of OATP1B1/3 pair): 1.47 µM
Ki (OATP1B3; second value of OATP1B1/3 pair): 4.08 µM

COc1cc(O)cc(/C=C/c2ccccc2)c1 [Pinosylvin 3-(methyl ether)]
inhibition (OATP1B1): < 50%
inhibition (OATP1B3): < 50%

CC[C@H](CC[C@@H](C)[C@H]1CC[C@H]2[C@@H]3CC=C4C[C@@H](O)CC[C@]4(C)[C@H]3CC[C@]12C)C(C)C [Stigmast-5-en-3beta-ol]
inhibition (OATP1B1): < 50%
inhibition (OATP1B3): < 50%

CC(C)=CCC[C@](C)(O)[C@@H]1CC=C(C)CC1 [Alpha-bisbolol]
inhibition (OATP1B1): < 50%
inhibition (OATP1B3): < 50%

C=C[C@H]1CN2CC[C@@]3(C(=O)Nc4ccccc43)[C@@H]2C[C@@H]1/C(=C\OC)C(=O)OC [isocorynoxeine]
PXR activation [1]: PXR activators

COC(=O)C1=CO[C@@H](C)[C@@H]2CN3CC[C@]4(C(=O)Nc5ccccc54)[C@@H]3C[C@H]12 [pteropodine]
PXR activation [1]: PXR activators

O=C1CC(c2ccccc2)Oc2cc(O)cc(O)c21 (stereo not shown) [5,7-Dihydroxyflavanone]
inhibition (OATP1B1): < 50%
inhibition (OATP1B3): < 50%

CC[C@H](CC[C@@H](C)[C@H]1CC[C@H]2[C@@H]3CC=C4C[C@@H](O)CC[C@]4(C)[C@H]3CC[C@]12C)C(C)C [Beta-Sitosterol]
Type of interaction (mouse MRP1): no substrate, no inhibitor
Type of interaction (Rat BSEP): no substrate, no inhibitor
Type of interaction (mBCRP): no substrate, no inhibitor
Type of interaction (ABCG5/8): probably substrate
Type of interaction (MDR1): no substrate, no inhibitor
